Measurements published in patent US12648913B2, “Polymeric nanocarriers and methods of use thereof” (Vanderbilt University, priority 2019, dated 2026).

System: MDA-MB-231 cells
Assay: MTS proliferation assay on rigid or compliant substrates
Assay type: cell-based, human
Excerpt: This motivated the hypothesis that blocking Gli-activity in metastatic breast tumors could obstruct their potential to establish in bone and adopt a bone-destructive phenotype. […] It is important to note the large variability in tumor burden inherent to the intracardiac model as evidenced by the large standard error. Even with this variability in consideration, there is significant tumor burden in the 10% Aln-GANT58 treated mice despite maintenance of high bone area (FIG. 18C). Based on the present inventors' previous studies reporting that both rigid mineralized bone matrix and TGF-β drive Gli2 expression in bone-metastatic cancer cell lines, it was hypothesized that GANT58-BTNP treatment may have a spatially heterogeneous effect on tumor cells that mirrors the spatial variation in Gli2 expression. Therefore, the effect of GANT58-BTNP treatment on tumor cell proliferation was measured by measuring Ki67 via IHC (FIG. 14F). […]
Proliferation Assay. […] Cell proliferation was determined by MTS assay using the CellTiter 96 Aqueous Non-Radioactive Cell Proliferation Assay kit (Promega) per the manufacturer's instructions. Absorbance values were measured at OD 490 nm on a plate reader and normalized to no cell controls in the respective GelMA coated and uncoated wells.

c1cc(-c2sc(-c3ccncc3)c(-c3ccncc3)c2-c2ccncc2)ccn1 [GANT58]
proliferation of cells on compliant substrates (40 μM GANT58, GelMA gels): not on compliant substrates
proliferation of cells on rigid substrates (40 μM GANT58, tissue culture plastic): significantly reduced
